The values that follow are results of earlier work, collected in US20250213563A1, “SUBSTITUTED PYRIMIDIN-4(3H)-ONES FOR USE IN TREATING CANCER” (NAVIRE PHARMA, INC., priority 2021, published 2025).

The conditions of series [1]: cited from earlier work.
In series [2] the test system is pERK in tumors. As to conditions: at ≥20 mg daily; cited from earlier work.
The test system of series [3] is DUSP6 mRNA in tumors. As to conditions: at ≥20 mg daily; cited from earlier work.

“Also recorded” adds a separate entry of the source.

Consider `Cc1nc(N2CCC3(CC2)CO[C@@H](C)[C@H]3N)c(CO)nc1Sc1ccnc(N)c1Cl` [RMC-4630], for which, in series [1] (Human DLTs), the “most common AEs” value is given as “patients; diarrhea,; also recorded: thrombocytopenia,; also recorded: edema are most” and the “patients in whom AEs lead to dose interruption” value is given as “interruption in 50%”. Further, the “Human Half life” value in series [1] (comparator SHP2 inhibitors) was 28 to 33 h. Further, the “Human PD: pERK inhibition in half of tumors analyzed” value in series [2] was more than 30% pERKinhibition.
Take `C[C@@H]1OCC2(CCN(c3cnc(Sc4ccnc(N)c4Cl)c(N)n3)CC2)[C@@H]1N` [TNO-155]: in series [1] (comparator SHP2 inhibitors), the “Human DLTs” value is reported as “LVEF decrease, liver; also recorded: enzyme elevation,; also recorded: diarrhea” and the “Human Half life” value was 35 h. For the same compound, the “Human PD: DUSP6 mRNA inhibition in tumors” value in series [3] was more than 50% DUSP6 mRNA.
